This note sets out measurements from patent US6335339B1, “Triazine antiviral compounds” (Scriptgen Pharmaceuticals, Inc., priority 1998, dated 2002).

One assay has as its system HBV εRNA. As to the kind of experiment: εRNA/oligonucleotide hybridization inhibition assay with rRNA competitor. The format is binding, Hepatitis B virus. The following applies: for IC50: radiolabeled εRNA, 60-fold excess rRNA competitor; for Specificity: ratio RRE+rRNA IC50/εRNA+rRNA IC50, max = inactive in RRE assay. A digest of the protocol: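 Inhibition of hybridization between 25 nM [32P]-εRNA and 100 nM biotinylated complementary oligonucleotide (50 mM Tris-HCl pH 7.5, 200 mM KCl, 5 mM MgCl2, 60 min, 25 °C), hybrids captured by streptavidin filter and counted. Titrations 0.1-200 μM with 60-fold excess rRNA; specificity = RRE+rRNA IC50/εRNA+rRNA IC50.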

Another assay deals with HIV derived RRE RNA. Put plainly: heterologous hybridization inhibition assay with RRE RNA. The format is binding. The following applies: radiolabeled RRE RNA, rRNA competitor.

By IC50 is commonly meant the concentration that inhibits the measured activity by half. In the case of `CCCCN(CCCC)c1nc(NN=Cc2ccc([N+](=O)[O-])cc2)nc(Nc2ccc([N+](=O)[O-])cc2)n1` [Compound 5], in the assay on HBV εRNA, the IC50 amounted to 49.3 µM and the Specificity result is “max”. Besides, the “RRE + rRNA IC50 (μM)” value in the assay with HIV derived RRE RNA was “inactive”.
Consider `Cc1[nH]c2ccccc2c1C=NNc1nc(Nc2ccccc2)nc(Nc2ccc([N+](=O)[O-])cc2)n1` [Compound 6], for which, in the assay with HBV εRNA, the IC50 turned out to be 10.4 µM and the Specificity result was “max”. Besides, the “RRE + rRNA IC50 (μM)” value in the assay on HIV derived RRE RNA is “inactive”.
Take `Cc1ccc(Nc2nc(NN=Cc3ccccc3)nc(Nc3ccccc3)n2)c(C)c1` [Compound 7]: in the assay with HBV εRNA, the half-maximal inhibitory concentration (IC50) came out at 2.4 µM and the Specificity entry is “max”. For the same molecule, the “RRE + rRNA IC50 (μM)” value with HIV derived RRE RNA is listed as “Inactive”.
`CCCCN(CCCC)c1nc(N/N=C/c2cc(I)cc(I)c2O)nc(Nc2ccc([N+](=O)[O-])cc2)n1` [Compound 8]: in the assay with HBV εRNA, the IC50 was determined as 4 µM and the Specificity entry was “max”. Also, the “RRE + rRNA IC50 (μM)” value in the assay on HIV derived RRE RNA was “inactive”.
Turning to `Cc1ccc(Nc2nc(NN=Cc3ccc(O)cc3O)nc(Nc3ccc([N+](=O)[O-])cc3)n2)cc1C` [Compound 9], in the assay with HBV εRNA, the IC50 is 6.2 µM and the Specificity came to 132.6. Moreover, in the assay with HIV derived RRE RNA, the “RRE + rRNA IC50 (μM)” value is “inactive”.
In the same order, the values of `Cc1ccccc1Nc1nc(NN=Cc2ccc(I)cc2)nc(Nc2ccc([N+](=O)[O-])cc2)n1` [Compound 10] are 12 µM, “max” and “inactive”.
In the same order, the values of `CCCCN(CCCC)c1nc(NN=Cc2ccc3c(c2)OCO3)nc(Nc2ccc([N+](=O)[O-])cc2)n1` [Compound 11] are 15 µM, “max” and “inactive”.
As for `Cc1ccc(Nc2nc(NN=Cc3ccccc3O)nc(Nc3ccc([N+](=O)[O-])cc3)n2)cc1C` [Compound 12], in the assay on HBV εRNA, the IC50 turned out to be 2.6 µM and the Specificity result was “max”. Moreover, the “RRE + rRNA IC50 (μM)” value in the assay on HIV derived RRE RNA is “inactive”.
As for `CCN(CC)c1nc(NN=Cc2ccc([N+](=O)[O-])cc2)nc(Nc2ccccc2)n1` [Compound 13], in the assay on HBV εRNA, the IC50 was 4.9 µM and the Specificity result is on record as “max”. Also, the “RRE + rRNA IC50 (μM)” value in the assay with HIV derived RRE RNA was “inactive”.
With `COc1c(Br)cc(Br)cc1C=NNc1nc(Nc2ccccc2)nc(N2CCCCC2)n1` [Compound 14], in the assay on HBV εRNA, the half-inhibitory concentration (IC50) is 7.1 µM and the Specificity result was “max”. Further, the “RRE + rRNA IC50 (μM)” value in the assay on HIV derived RRE RNA was “inactive”.
As to `Cc1ccc(C=NNc2nc(Nc3ccc([N+](=O)[O-])cc3)nc(Nc3ccccc3C)n2)cc1` [Compound 15], in the assay on HBV εRNA, the IC50 is 11 µM and the Specificity result is “max”. Besides, the “RRE + rRNA IC50 (μM)” value in the assay on HIV derived RRE RNA is “inactive”.
Consider `CCCCN(CCCC)c1nc(NN=Cc2ccc(Cl)cc2)nc(Nc2ccc([N+](=O)[O-])cc2)n1` [Compound 16], for which, in the assay with HBV εRNA, the IC50 turned out to be 12.1 µM and the Specificity entry is “max”. Also, the “RRE + rRNA IC50 (μM)” value in the assay on HIV derived RRE RNA was “inactive”.
For the molecule `CC(C=NNc1nc(Nc2ccc([N+](=O)[O-])cc2)nc(Nc2ccc(C)c(C)c2)n1)=Cc1ccccc1` [Compound 19], in the assay on HBV εRNA, the IC50 is 9.9 µM and the Specificity entry was “max”. Moreover, in the assay on HIV derived RRE RNA, the “RRE + rRNA IC50 (μM)” value was “inactive”.
As for `COc1ccc(Nc2nc(NN=Cc3ccc(OC)cc3OC)nc(Nc3ccccc3)n2)cc1` [Compound 20], in the assay on HBV εRNA, the IC50 came to 11.7 µM and the Specificity result is listed as “max”. Besides, in the assay on HIV derived RRE RNA, the “RRE + rRNA IC50 (μM)” value was “inactive”.
Take `FC(F)(F)c1cccc(Nc2nc(Nc3ccccc3)nc(N3CCOCC3)n2)c1` [Compound 21]: in the assay on HBV εRNA, the IC50 was 14.4 µM and the Specificity entry was “max”. Besides, the “RRE + rRNA IC50 (μM)” value in the assay on HIV derived RRE RNA is “inactive”.
In the case of `COc1ccc(Nc2nc(NN=Cc3ccc(Cl)cc3)nc(Nc3ccccc3)n2)cc1` [Compound 22], in the assay on HBV εRNA, the IC50 came to 3.6 µM and the Specificity entry is given as “max”. In addition, the “RRE + rRNA IC50 (μM)” value in the assay on HIV derived RRE RNA is “inactive”.
